Assay results: patent USRE36374E, “1,2,3-triazole and tetrazole substituted piperidine or tetrahydropyridine compounds useful as acetylcholine agonists” (priority 1987, dated 1999)
pIC50: −log10 of the molar value. Where a name gives a salt, the structure may show the parent alone.

How the values were obtained:
[1] = peripheral administration; background; cited from earlier work
[2] = peripheral administration; background; cited from earlier work; remark: listed apart in the source
AcCh receptors = details: background; cited from earlier work
[3] = background; cited from earlier work
[4] = molecular target: central cholinergic receptors; experiment: 3H-oxotremorine-M (Oxo-M) displacement from rat brain homogenates; type: binding; details: displacement of 3H-oxotremorine-M, pH 7.4, 40 min, 30° C
Method: (§1) Affinity to central cholinergic receptors in vitro was measured as the ability of the compounds to displace ^3 H-oxotremorine-M (Oxo-M) from rat brain homogenates, while affinity to central muscarinic M-1-receptors in vitro was measured as the ability of the compounds to displace ^3 H-pirenzepin (Pz) from rat brain homogenates.
^3 H-oxotremorine M binding
was performed essentially as described by Birdsdall et al., 1980. Briefly, rat brains were homogenized in 100 vol (w/v) 10 mM Na,K-phosphate buffer (pH 7.4) and aliquots incubated with ^3 H-oxotremorine M (84.9 Ci/m-mol, NEN) alone or in the presence of test compound in a total volume of 1.5 ml for 40 min. at 30° C. The reaction was stopped by adding 5 ml cold buffer and filtered through Whatman GF/B filters soaked previously in 0.1% polyethylenimin (Sigma) for minimum 30 min. The filters were washed once with the same volume of buffer, transferred to scintillation vials and extracted in scintillation fluid (Pico-fluor 15, Packard) for at least two hours before counted in a liquid scintillation spectrometer (Beckman LS 1800). Non-specific binding was estimated at 10 μM atropine and all estimations made in triplicate. At least two displacement curves were made for each compound tested.
Birdsdall N. J. M., Hulme E. C., and Burgen A. S. V. (1980). "The Character of Muscarinic Receptors in Different Regions of the Rat Brain". Proc. Roy. […] London (Series B) 207, 1.

[5] = molecular target: T1, central muscarinic M-1-receptors (Rattus norvegicus, UniProt P08482); experiment: 3H-pirenzepine (Pz) displacement from rat brain homogenates; type: binding; details: displacement of 1.0 nM 3H-pirenzepine, rat brain homogenates, 60 min, 25° C; read-out: Pz, IC50
T1 sequence (P08482 1-460): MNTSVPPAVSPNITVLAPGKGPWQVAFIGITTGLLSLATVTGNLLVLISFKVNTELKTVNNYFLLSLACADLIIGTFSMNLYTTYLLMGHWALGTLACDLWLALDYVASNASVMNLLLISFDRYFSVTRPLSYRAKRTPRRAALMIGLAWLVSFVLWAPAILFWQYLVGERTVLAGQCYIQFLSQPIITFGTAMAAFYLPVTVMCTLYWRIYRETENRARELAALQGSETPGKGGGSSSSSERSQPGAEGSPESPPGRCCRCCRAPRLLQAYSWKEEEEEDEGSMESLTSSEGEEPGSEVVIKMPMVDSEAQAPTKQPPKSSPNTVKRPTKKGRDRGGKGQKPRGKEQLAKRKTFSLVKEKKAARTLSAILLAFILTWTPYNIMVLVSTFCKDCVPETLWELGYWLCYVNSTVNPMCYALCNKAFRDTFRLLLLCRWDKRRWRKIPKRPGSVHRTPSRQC
Method: as §1
was performed essentially as described by Watson et al., 1983, the conditions being very much the same as for ^3 H-oxotremorine binding, except that aliquots were incubated with 1.0 nM ^3 H-pirenzepine for 60 min. at 25° C. and that the reaction was stopped by direct filtration followed by 3 washes with 4 ml buffer.
Watson, M., Yamamura, H. I., and Roeske, W. R. (1983). "A unique regulatory profile and regional distribution of ^3 H-pirenzepin binding in the rat provide evidence for distinct M1 and M2 muscarinic receptor subtypes". Life Sci. 32 (1983) 3001-3011.

SMILES	central effects [1]	penetration of blood-brain barrier [2]	AcCh agonist activity (AcCh receptors)	hydrolysis of ester group in vivo [3]	pIC50 [4]	pIC50 [5]
COC(=O)C1=CCCN(C)C1 [Arecoline, methyl 1-methyl-1,2,5,6-tetrahydropyridine-3-carboxylate]	very weak and frequently negligible central effects	capable of penetrating the BBB	AcCh agonist	very rapidly hydrolyzed in vivo	–	–
Cc1coc(C2=CCCN(C)C2)n1 [Compound 84, 4-Methyl-2-(1-methyl-1,2,5,6-tetrahydro-3-pyridyl)-oxazole, oxalate]	–	–	–	–	7.55	7.24
Cc1coc(C2=CCCNC2)n1 [Compound 85, 4-Methyl-2-(1,2,5,6-tetrahydro-3-pyridyl)-oxazole, fumarate]	–	–	–	–	8.12	5.85
CN1CCC=C(C2=NC(C)(C)CO2)C1 [Compound 87, 4,4-Dimethyl-2-1-methyl-1,2,5,6-tetrahydro-3-pyridyl)-oxazoline, fumarate]	–	–	–	–	6.89	6.40
Cc1cnc(C2=CCCN(C)C2)s1 [Compound 90, 5-Methyl-2-(1-methyl-1,2,5,6-tetrahydro-3-pyridyl)-thiazole, hemifumarate]	–	–	–	–	6.74	6.38
Cc1cnc(C2=CCCNC2)s1 [Compound 91, 5-Methyl-2-(1,2,5,6-tetrahydro-3-pyridyl)-thiazole, fumarate]	–	–	–	–	6.44	6.00
CSc1cnc(C2=CCCN(C)C2)s1 [Compound 93, 5-Methylthio-2-(1-methyl-1,2,5,6-tetrahydro-3-pyridyl)-thiazole, fumarate]	–	–	–	–	7.74	6.89
Cc1cc(C2=CCCN(C)C2)nn1C [Compound 95, 1,5-Dimethyl-3-(1-methyl-1,2,5,6-tetrahydro-3-pyridyl)-pyrazole, dihydrochloride]	–	–	–	–	6.46	6.74
